Assay results taken from paper PMC3930563, “Mycobacterium tuberculosis Exploits Asparagine to Assimilate Nitrogen and Resist Acid Stress during Infection” (PLoS Pathogens, 2014).

Target: AnsA (Rv1538c), recombinant AnsA-HIS6 (Mycobacterium tuberculosis, UniProt P9WPX5)
Sequence (P9WPX5 whole entry): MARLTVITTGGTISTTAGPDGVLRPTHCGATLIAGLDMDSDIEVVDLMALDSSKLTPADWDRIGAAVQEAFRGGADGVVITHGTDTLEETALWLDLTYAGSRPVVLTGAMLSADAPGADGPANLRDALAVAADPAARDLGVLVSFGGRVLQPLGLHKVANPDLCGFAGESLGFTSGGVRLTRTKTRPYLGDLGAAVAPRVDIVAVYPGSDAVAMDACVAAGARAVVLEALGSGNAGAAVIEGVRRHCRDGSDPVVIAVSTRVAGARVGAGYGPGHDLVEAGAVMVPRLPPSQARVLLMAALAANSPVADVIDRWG

SMILES: NC(=O)C[C@H](N)C(=O)O [Asn, asparagine]
- coupled glutamate dehydrogenase assay, NADPH disappearance at 340 nm: revealed that AnsA mediates asparagine hydrolysis (Fig. 1E)
